Results from article PMC6109062, “The dual methyltransferase METTL13 targets N terminus and Lys55 of eEF1A and modulates codon-specific translation rates” (Nature Communications, 2018).

Target: T1, MT13-N (N-terminal methyltransferase domain of METTL13) (Homo sapiens, UniProt Q8N6R0)
T1 construct: N-terminal methyltransferase domain, His6-tagged, E. coli
T1 sequence (Q8N6R0 1-245 limits assumed): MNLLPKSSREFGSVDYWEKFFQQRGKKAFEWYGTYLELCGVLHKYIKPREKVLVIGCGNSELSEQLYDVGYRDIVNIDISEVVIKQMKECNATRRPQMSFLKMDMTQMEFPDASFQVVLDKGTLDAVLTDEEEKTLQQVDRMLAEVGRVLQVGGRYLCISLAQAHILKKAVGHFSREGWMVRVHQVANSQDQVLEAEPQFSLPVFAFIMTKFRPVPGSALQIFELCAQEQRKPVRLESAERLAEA
Test: [3H]AdoMet methyl transfer to eEF1A1, fluorography; MS
Assay type: biochemical
Settings: co-substrate eEF1A1 (Lys55), no nucleotide added; pH 7.4, 1 mM MgCl2, 30 °C; labelled compound

With `C[S+](CC[C@H](N)C(=O)O)C[C@H]1O[C@@H](n2cnc3c(N)ncnc32)[C@H](O)[C@@H]1O` (stereo partly shown) [AdoMet] the “[3H]AdoMet methyl transfer to eEF1A1, fluorography; MS” value was “Recombinant eEF1A was incubated with MT13-N in the presence of AdoMet”.
